The source of these data is ChEMBL document CHEMBL1152541, “Staurosporine tethered peptide ligands that target cAMP-dependent protein kinase (PKA): optimization and selectivity profiling” (Bioorg Med Chem, 2009).

*1 amine or outer side, *2 acyl side, *3 side chain or, on linkers, in order; H or OH if unused. Where a SMILES comes first, the peptide text is derived from it. Bridges are numbered along the chain shown (N, C = ends). The star is where a group is joined. Staurosporine = CO[C@@H]1[C@H](N(C)*)C[C@H]2O[C@]1(C)n1c3ccccc3c3c4c(c5c6ccccc6n2c5c31)C(=O)NC4; Suc = O=C(CCC(=O)[*:2])[*:1]; βAla = NCCC(=O)O

A short description of assay [1]: Ratio of compound IC50 to bivalent ligand 1 IC50 for PKA.
Assay [2] is described as follows: Noncompetitive inhibition of PKA assessed as [gamma-32P]ATP labeling of kemptide by liquid scintillation counting.
A short description of assay [3]: Competitive inhibition of PKA assessed as [gamma-32P]ATP labeling of kemptide by liquid scintillation counting.
Assay [4] is described as follows: Uncompetitive inhibition of PKA assessed as [gamma-32P]ATP labeling of kemptide by liquid scintillation counting.
A short description of assay [5]: Mixed inhibition of PKA assessed as [gamma-32P]ATP labeling of kemptide by liquid scintillation counting.
A short description of assay [6]: Ratio of inhibition of PKA in presence of DTT to inhibition of PKA in absence of DTT.

For orientation: Ki means a measure of affinity in units of concentration, obtained from inhibition or displacement. One may read the Km as the substrate concentration at which the rate is half of its maximum.

On to `CC(C)[C@@H]1NC(=O)[C@H](CCCNC(=N)N)NC(=O)[C@H](Cc2ccccc2)NC(=O)[C@H](C(C)C)NC(=O)[C@@H](N)CSSC[C@@H](C(=O)NCC(N)=O)NC(=O)CNC(=O)[C@H](Cc2ccccc2)NC1=O` (HELM PEPTIDE1{C.V.F.R.V.F.G.C.G.[am]}$PEPTIDE1,PEPTIDE1,1:R3-8:R3$$$V2.0), for which the Ratio IC50 in assay [1] is above 21000. In assay [2], the Ki amounted to 85.6 µM and the Km was found to be 13.3 µM.

Regarding `CO[C@@H]1[C@H](N(C)C(=O)CCC(=O)NCCCOCCCNC(=O)COCC(=O)N[C@H]2CSSC[C@@H](C(=O)NCC(N)=O)NC(=O)CNC(=O)[C@H](Cc3ccccc3)NC(=O)[C@H](C(C)C)NC(=O)[C@H](CCCNC(=N)N)NC(=O)[C@H](Cc3ccccc3)NC(=O)[C@H](C(C)C)NC2=O)C[C@H]2O[C@]1(C)n1c3ccccc3c3c4c(c5c6ccccc6n2c5c31)C(=O)NC4` (HELM PEPTIDE1{[CO[C@@H]1[C@H](N(C)C(=O)CCC(=O)NCCCOCCCNC(=O)COCC(=O)[*:2])C[C@H]2O[C@]1(C)n1c3ccccc3c3c4c(c5c6ccccc6n2c5c31)C(=O)NC4].C.V.F.R.V.F.G.C.G.[am]}$PEPTIDE1,PEPTIDE1,2:R3-9:R3$$$V2.0), the Ki is 10.1 µM in assay [3] and 0.002 µM in assay [2]. The Km in assay [4] amounted to 13.9 µM; in assay [5], 11.2 µM; in assay [2], 12 µM.

Take `CO[C@@H]1[C@H](N(C)C(=O)CCC(=O)NCCC(=O)NCCC(=O)NCCC(=O)NCCC(=O)NCCC(=O)NCCC(=O)NCCC(=O)NCCC(=O)NCCC(=O)N[C@H]2CSSC[C@@H](C(=O)NCC(N)=O)NC(=O)CNC(=O)[C@H](Cc3ccccc3)NC(=O)[C@H](C(C)C)NC(=O)[C@H](CCCNC(=N)N)NC(=O)[C@H](Cc3ccccc3)NC(=O)[C@H](C(C)C)NC2=O)C[C@H]2O[C@]1(C)n1c3ccccc3c3c4c(c5c6ccccc6n2c5c31)C(=O)NC4` ({Staurosporine-Suc-βAla-βAla-βAla-βAla-βAla-βAla-βAla-βAla-βAla}-CVFRVFGCG-NH2; disulfide 1-8): in assay [6], the Ratio came out at 2.7.

In the case of `CO[C@@H]1[C@H](N(C)C(=O)CCC(=O)NCCC(=O)NCCC(=O)NCCC(=O)NCCC(=O)NCCC(=O)N[C@H]2CSSC[C@@H](C(=O)NCC(N)=O)NC(=O)CNC(=O)[C@H](Cc3ccccc3)NC(=O)[C@H](C(C)C)NC(=O)[C@H](CCCNC(=N)N)NC(=O)[C@H](Cc3ccccc3)NC(=O)[C@H](C(C)C)NC2=O)C[C@H]2O[C@]1(C)n1c3ccccc3c3c4c(c5c6ccccc6n2c5c31)C(=O)NC4` ({Staurosporine-Suc-βAla-βAla-βAla-βAla-βAla}-CVFRVFGCG-NH2; disulfide 1-8), the Ratio in assay [6] was 2.7.

`CO[C@@H]1[C@H](N(C)C(=O)CCC(=O)NCCC(=O)NCCC(=O)NCCC(=O)N[C@H]2CSSC[C@@H](C(=O)NCC(N)=O)NC(=O)CNC(=O)[C@H](Cc3ccccc3)NC(=O)[C@H](C(C)C)NC(=O)[C@H](CCCNC(=N)N)NC(=O)[C@H](Cc3ccccc3)NC(=O)[C@H](C(C)C)NC2=O)C[C@H]2O[C@]1(C)n1c3ccccc3c3c4c(c5c6ccccc6n2c5c31)C(=O)NC4` ({Staurosporine-Suc-βAla-βAla-βAla}-CVFRVFGCG-NH2; disulfide 1-8): the Ratio in assay [6] turned out to be 2.7.

`CC(C)C[C@H](NC(=O)[C@H](CO)NC(=O)[C@H](C)NC(=O)[C@H](CCCNC(=N)N)NC(=O)[C@H](CCCNC(=N)N)NC(=O)[C@@H](N)CC(C)C)C(=O)NCC(=O)O` [KEMPTIDE]: in assay [2], the Ki came out at 86 µM and the Km was 13.3 µM.
